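In this assay, cells in 96-well plates receive the compound at five concentrations for 48 hours. Endpoints are linearly interpolated between the surrounding concentrations. GI50: concentration for 50% inhibition of growth.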 Calls of active or inactive are those of the source. Rule as the data show it: active = GI50 up to about 1.1 µM and inactive = higher.
Assays:
Experiment in all cases: DTP human tumour cell line panel, 48 h
MOLT-4 = test system: MOLT-4
SF-539 = test system: SF-539
CCRF-CEM = test system: CCRF-CEM
U-251 = test system: U-251
Malme-3M = test system: Malme-3M
HCT-116 = test system: HCT-116
RXF 393 = test system: RXF 393
COLO 205 = test system: COLO 205
TK-10 = test system: TK-10
UACC-62 = test system: UACC-62
SN12C = test system: SN12C
SNB-19 = test system: SNB-19
SK-OV-3 = test system: SK-OV-3
SW-620 = test system: SW-620
SF-268 = test system: SF-268
OVCAR-5 = test system: OVCAR-5
KM12 = test system: KM12
OVCAR-3 = test system: OVCAR-3
HT-29 = test system: HT-29
MDA-N = test system: MDA-N

Measured: GI50

CCCN1C(=O)C/C(=C\C(C)=O)Nc2ccccc21
inactive: MOLT-4 > 100 µM | SF-539 > 100 µM | CCRF-CEM > 100 µM | U-251 > 100 µM | Malme-3M > 100 µM | HCT-116 > 100 µM | RXF 393 > 100 µM | COLO 205 86.3 µM | TK-10 > 100 µM | UACC-62 > 100 µM | SN12C > 100 µM | SNB-19 > 100 µM | SK-OV-3 > 100 µM | SW-620 > 100 µM | SF-268 > 100 µM | OVCAR-5 > 100 µM | KM12 > 100 µM | OVCAR-3 > 100 µM | HT-29 > 100 µM

CCCCCCCCCCCCCCCCCCOc1ccc(/C=C/C2=[N+](CCCl)CCO2)cc1
inactive: MOLT-4 > 100 µM | MDA-N > 100 µM | SF-539 > 100 µM | CCRF-CEM > 100 µM | U-251 50.4 µM | Malme-3M > 100 µM | HCT-116 > 100 µM | COLO 205 70.1 µM | TK-10 > 100 µM | UACC-62 > 100 µM | SN12C > 100 µM | SNB-19 > 100 µM | SK-OV-3 > 100 µM | SW-620 > 100 µM | OVCAR-5 95.7 µM | KM12 > 100 µM | OVCAR-3 > 100 µM | HT-29 > 100 µM

Cc1ccc(S(=O)(=O)SC(C)(C)C)cc1
inactive: MOLT-4 18.2 µM | MDA-N > 10 µM | SF-539 32.1 µM | CCRF-CEM 12.6 µM | U-251 > 100 µM | Malme-3M > 44.4 µM | HCT-116 17.6 µM | COLO 205 47.6 µM | TK-10 40.3 µM | UACC-62 19.9 µM | SN12C 38.9 µM | SNB-19 > 100 µM | SK-OV-3 > 100 µM | SW-620 22.2 µM | SF-268 45.5 µM | OVCAR-5 > 48.4 µM | KM12 45.2 µM | OVCAR-3 20.9 µM | HT-29 13.1 µM

CNC(=S)Nc1sc2c(c1C#N)CCCC2
inactive: MOLT-4 > 75 µM | MDA-N > 75 µM | U-251 > 75 µM | Malme-3M > 75 µM | HCT-116 > 75 µM | RXF 393 > 75 µM | COLO 205 > 75 µM | TK-10 > 75 µM | UACC-62 > 75 µM | SN12C > 75 µM | SNB-19 > 75 µM | SW-620 > 75 µM | SF-268 > 75 µM | OVCAR-5 > 75 µM | KM12 > 75 µM | OVCAR-3 > 75 µM | HT-29 > 75 µM

CCCCN(CCCC)CC(=O)c1ccc2cc(Cl)c3ccccc3c2c1
inactive: MOLT-4 31.5 µM | SF-539 42.6 µM | CCRF-CEM > 100 µM | U-251 19.6 µM | Malme-3M 37.6 µM | HCT-116 43.1 µM | RXF 393 13.4 µM | COLO 205 14.9 µM | TK-10 50 µM | UACC-62 32.6 µM | SN12C 50.7 µM | SNB-19 33.7 µM | SK-OV-3 31 µM | SW-620 29.8 µM | SF-268 16.1 µM | OVCAR-5 51.1 µM | KM12 32 µM | OVCAR-3 51.4 µM | HT-29 17.4 µM

CC12CC(c3ccccc3O1)C(C(=O)Nc1ccc(F)cc1)C(=O)N2 (centres undefined)
inactive: MOLT-4 21.1 µM | MDA-N > 100 µM | SF-539 > 100 µM | CCRF-CEM 28.2 µM | U-251 > 100 µM | Malme-3M > 100 µM | HCT-116 > 100 µM | COLO 205 > 100 µM | UACC-62 71.6 µM | SNB-19 > 100 µM | SK-OV-3 > 100 µM | SW-620 > 100 µM | SF-268 > 100 µM | OVCAR-5 > 100 µM | KM12 > 100 µM | OVCAR-3 > 100 µM | HT-29 89.9 µM

CCOC(=O)C(=Cc1cccnc1C)C(=O)OCC
inactive: MOLT-4 12.6 µM | SF-539 6.15 µM | CCRF-CEM 3.93 µM | U-251 6.18 µM | Malme-3M 12.2 µM | HCT-116 5.01 µM | RXF 393 4.35 µM | COLO 205 5.6 µM | TK-10 12.9 µM | UACC-62 6.82 µM | SN12C 4.43 µM | SNB-19 11.3 µM | SK-OV-3 11.3 µM | SW-620 5.32 µM | SF-268 9.89 µM | OVCAR-5 17.9 µM | KM12 3.1 µM | OVCAR-3 2.67 µM | HT-29 5.15 µM

O=C(O)CCC(c1ccccc1)(c1ccccc1)c1ccccc1
inactive: MOLT-4 33.9 µM | MDA-N 30.3 µM | SF-539 33.3 µM | CCRF-CEM 64.3 µM | U-251 39 µM | Malme-3M > 100 µM | COLO 205 24.7 µM | TK-10 52.5 µM | UACC-62 27.4 µM | SN12C 38.9 µM | SNB-19 42.3 µM | SK-OV-3 31.9 µM | SW-620 39.8 µM | SF-268 24.5 µM | OVCAR-5 > 100 µM | KM12 51.1 µM | OVCAR-3 14.7 µM | HT-29 36.1 µM

O=C(CC1(O)C(=O)Nc2c(Cl)cc(Cl)cc21)c1ccc([N+](=O)[O-])cc1 (centres undefined)
inactive: MOLT-4 > 59.4 µM | SF-539 > 46.7 µM | CCRF-CEM 26.7 µM | U-251 31.7 µM | Malme-3M > 43.9 µM | HCT-116 > 42.2 µM | RXF 393 > 100 µM | COLO 205 > 58.5 µM | TK-10 > 100 µM | UACC-62 28.1 µM | SN12C > 45.7 µM | SNB-19 > 100 µM | SK-OV-3 > 100 µM | SW-620 28.3 µM | SF-268 > 50.8 µM | OVCAR-5 > 100 µM | KM12 > 54.8 µM | OVCAR-3 33.7 µM | HT-29 > 58.9 µM

Cc1ccc(/C=C2\CCCCCC2=O)cc1
inactive: MOLT-4 > 100 µM | MDA-N > 100 µM | CCRF-CEM 41.3 µM | U-251 > 100 µM | Malme-3M > 100 µM | HCT-116 > 100 µM | COLO 205 > 100 µM | TK-10 > 100 µM | UACC-62 > 100 µM | SN12C > 100 µM | SNB-19 > 100 µM | SK-OV-3 > 100 µM | SW-620 > 100 µM | SF-268 > 100 µM | OVCAR-5 > 100 µM | KM12 > 100 µM | OVCAR-3 > 100 µM | HT-29 > 100 µM

O=c1c(C(c2ccco2)c2c(O)oc3ccccc3c2=O)c(O)oc2ccccc12
inactive: MOLT-4 25.6 µM | MDA-N 22.6 µM | CCRF-CEM 26.8 µM | U-251 27.2 µM | Malme-3M 20.5 µM | HCT-116 78 µM | COLO 205 22.3 µM | TK-10 26.7 µM | UACC-62 25.9 µM | SN12C 25.1 µM | SNB-19 44.6 µM | SW-620 21.4 µM | SF-268 31.9 µM | KM12 > 100 µM | OVCAR-3 41.6 µM | HT-29 47.6 µM
